These results are taken from patent US8299073B2, “P38 MAP kinase inhibitors” (Respivert Ltd., priority 2008, dated 2012).

Molecules are shown by their SMILES. Where two headings read alike, the source gives them in different places.

Data set [1] has as its system Differentiated U937 cells. In words: MTT assay (loss of cell viability). The settings on record: for MTT 4 hr / MTT 24 hr: loss of cell viability, 10 ug/ml. The class given is cell-based, human. (Formazan colour is commonly taken as a measure of viable cells.)
Experimental: Differentiated U937 cells were pre-incubated with compound for 4 hrs in 5% FCS or 10% FCS for 24 hrs and 72 hr. The supernatant was replaced with 200 ul of new media and 10 μL of MTT stock solution (5 mg/mL) added to each well. After 1 hr incubation, the media were removed, 200 μL of DMSO added to each well and the plates were shaken lightly for 1 hr prior to reading the absorbance at 550 nm.
The percentage loss of cell viability was calculated for each well relative to vehicle (0.5% DMSO)-treatment. Consequently an apparent increase in cell viability for drug treatment relative to vehicle is tabulated as a negative percentage.
In data set [2] the target is T1, recombinant, phosphorylated p38 MAPK gamma (MAPK12:Millipore) (Homo sapiens, UniProt P53778).
T1 construct: purchased Millipore
T1 sequence (P53778 1-367): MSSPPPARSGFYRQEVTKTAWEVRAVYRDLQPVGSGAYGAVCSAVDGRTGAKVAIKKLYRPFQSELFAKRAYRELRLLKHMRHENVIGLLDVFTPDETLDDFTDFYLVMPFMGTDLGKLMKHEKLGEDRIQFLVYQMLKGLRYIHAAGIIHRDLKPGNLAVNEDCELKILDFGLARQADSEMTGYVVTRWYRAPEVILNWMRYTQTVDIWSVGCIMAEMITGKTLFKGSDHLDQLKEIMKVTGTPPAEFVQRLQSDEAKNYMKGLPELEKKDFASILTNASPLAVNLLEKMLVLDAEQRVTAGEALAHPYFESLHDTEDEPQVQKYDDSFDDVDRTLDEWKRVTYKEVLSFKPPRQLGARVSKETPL
In words: Enzyme inhibition assay (FRET, Z-LYTE), p38 MAPK gamma. In kind it is biochemical. The settings on record: read-out: IC50 values P38γ enzyme.
Experimental: The enzyme inhibitory activity of compound was determined by fluorescence resonance energy transfer (FRET) using synthetic peptides labelled with both donor and acceptor fluorophores (Z-LYTE, Invitrogen). Briefly, recombinant, phosphorylated p38 MAPK gamma (MAPK12:Millipore) was diluted in HEPES buffer, mixed with compound at desired final concentrations and incubated for two hours at room temperature. The FRET peptide (2 μM) and ATP (100 uM) were next added to the enzyme/compound mixture and incubated for one hour. Development reagent (protease) was added for one hour prior to detection in a fluorescence microplate reader. The site-specific protease only cleaves non-phosphorylated peptide and eliminates the FRET signal. Phosphorylation levels of each reaction were calculated using the ratio of coumarin emission (donor) over fluorescein emission (acceptor) with high ratios indicating high phosphorylation and low ratios, low phosphorylation levels.

Data set [3] relates to LPS-induced TNFα release in differentiated U937 cells. As to the kind of experiment: LPS-induced TNF alpha release in differentiated U937 cells. The class given is cell-based.
Experimental: U937 cells, human monocytic cell line, were differentiated to macrophage-type cells by incubation with phorbol myristate acetate (PMA; 100 ng/ml) for 48 to 72 hours. Where appropriate, cells were pre-incubated with final concentrations of compound for 2 hrs. Cells were then stimulated with 0.1 μg/mL of LPS (from E. coli: O111:B4, Sigma) for 4 hrs, and the supernatant collected for determination of TNFα concentration by sandwich ELISA (Duo-set, R&D systems).
For data set [4], the system named is LPS-induced TNFα release in THP-1 cells. In words: LPS-induced TNF alpha release in THP-1 cells. In kind it is cell-based. Conditions: Homo sapiens.
Experimental: THP-1, human monocytic cell line, was also used for this assay. THP-1 cells were stimulated with 1 μg/ml of LPS (from E. coli: O111:B4, Sigma) for 4 hrs, and the supernatant collected for determination of TNFα concentration.
THP-1 cells, a human monocytic cell line, were stimulated with 1 μg/ml of LPS (from E. coli; O111:B4, Sigma) for 4 hr and the supernatant collected for determination of TNFα concentration by sandwich ELISA (Duo-set, R&D systems). The inhibition of TNFα production was calculated at each concentration by comparison with vehicle control.
For data set [5], the target named is T2, p38 MAPK alpha (MAPK14: Invitrogen) (Homo sapiens, UniProt Q16539).
T2 construct: purchased Invitrogen
In words: Enzyme inhibition assay (FRET, Z-LYTE), p38 MAPK alpha, via activation of MAPKAP-K2. In kind it is biochemical. Conditions: read-out: IC50 values p38α enzyme.

Setting [6] is: Homo sapiens; read-out: R-EC50 values d-U937 cells.
[7] abbreviates: THP-1, LPS-induced TNFα release, read-out: IC50 values THP-1 cells.
Where [8] appears, read: Homo sapiens, read-out: R-EC50 values d-U937 cells.
[9] abbreviates: THP-1, read-out: IC50 values THP-1 cells.

T2 sequence (Q16539 whole entry): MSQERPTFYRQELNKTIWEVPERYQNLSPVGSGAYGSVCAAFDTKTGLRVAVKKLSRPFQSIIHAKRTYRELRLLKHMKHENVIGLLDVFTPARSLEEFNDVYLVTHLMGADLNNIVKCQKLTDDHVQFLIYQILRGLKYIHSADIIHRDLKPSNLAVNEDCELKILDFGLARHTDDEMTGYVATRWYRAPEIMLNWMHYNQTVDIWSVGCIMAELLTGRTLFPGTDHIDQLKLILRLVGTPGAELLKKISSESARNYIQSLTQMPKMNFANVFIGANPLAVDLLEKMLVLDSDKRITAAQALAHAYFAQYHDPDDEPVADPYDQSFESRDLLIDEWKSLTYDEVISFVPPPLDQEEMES

For the molecule `COCC(=O)Nc1cc(COc2ccc(NC(=O)Nc3cc(C(C)(C)C)nn3-c3ccc(C)cc3)c3ccccc23)ccn1` [Example 1, N-(4-((4-(3-(3-tert-Butyl-1-p-tolyl-1H-pyrazol-5-yl)ureido)naphthalen-1-yloxy)methyl)pyridin-2-yl)-2-methoxyacetamide], in data set [1] (4, 24 h (10 μg/ml)), the “Differentiated U937 cells MTT Assay” value is recorded as “Negative^2”. Besides, in data set [1], the “MTT 4 hr” value is “− (− <30%)” and the “MTT 24 hr” value is given as “− (− <30%)”.
Usually IC50 stands for the concentration at which inhibition is half-maximal. Usually EC50 stands for the concentration at which the effect is half-maximal. For the molecule `CNC(=O)Nc1cc(COc2ccc(NC(=O)Nc3cc(C(C)(C)C)nn3-c3ccc(C)cc3)c3ccccc23)ccn1` [Example 2, Methyl 4-((4-(3-(3-tert-butyl-1-p-tolyl-1H-pyrazol-5-yl)ureido)naphthalen-1-yloxy)methyl)pyridin-2-ylurea], in data set [2], the IC50 is less than 500 nM. Besides, the 50% effective concentration (EC50) in data set [3] (setting [6]) is less than 500 nM. Further, the IC50 in data set [4] (setting [7]) was less than 500 nM. In data set [1], the “MTT 4 hr” value is given as “− (− <30%)” and the “MTT 24 hr” value is recorded as “− (− <30%)”.
As for `Cc1ccc(-n2nc(C(C)(C)C)cc2NC(=O)Nc2ccc(OCc3ccnc(NC(=O)C4CCOCC4)c3)c3ccccc23)cc1` [Example 3, N-(4-((4-(3-(3-tert-Butyl-1-p-tolyl-1H-pyrazol-5-yl)ureido)naphthalen-1-yloxy)methyl)pyridin-2-yl)tetrahydro-2H-pyran-4-carboxamide], the values for the IC50 in data set [5], in data set [2] and in data set [4] (setting [7]) were less than 10 nM, less than 500 nM and less than 10 nM, respectively. For the same molecule, the EC50 in data set [3] (setting [6]) was less than 10 nM. Besides, in data set [1], the “MTT 4 hr” value was “− (− <30%)”. Moreover, the “MTT 24 hr” value in data set [1] was “+ (+ >30% at 10 ug/ml)”.
For the molecule `CO[C@@H](C)C(=O)Nc1cc(COc2ccc(NC(=O)Nc3cc(C(C)(C)C)nn3-c3ccc(C)cc3)c3ccccc23)ccn1` [Example 4, (S)-N-(4-((4-(3-(3-tert-Butyl-1-p-tolyl-1H-pyrazol-5-yl)ureido)naphthalen-1-yloxy)methyl)pyridin-2-yl)-2-methoxypropanamide], the IC50 in data set [5] was less than 500 nM; in data set [2] it was less than 500 nM; in data set [4] (setting [7]), less than 10 nM. Further, the EC50 in data set [3] (setting [6]) was less than 10 nM. In addition, in data set [1], the “MTT 4 hr” value is recorded as “− (− <30%)”. Further, the “MTT 24 hr” value in data set [1] was “− (− <30%)”.
As to `CO[C@H](C)C(=O)Nc1cc(COc2ccc(NC(=O)Nc3cc(C(C)(C)C)nn3-c3ccc(C)cc3)c3ccccc23)ccn1` [Example 5, (R)-N-(4-((4-(3-(3-tert-Butyl-1-p-tolyl-1H-pyrazol-5-yl)ureido)naphthalen-1-yloxy)methyl)pyridin-2-yl)-2-methoxypropanamide], the IC50 is less than 10 nM in data set [5], less than 5000 nM in data set [2] and less than 10 nM in data set [4] (setting [7]). Moreover, the EC50 in data set [3] (setting [6]) was less than 10 nM. In data set [1], the “MTT 4 hr” value was “− (− <30%)”. Also, the “MTT 24 hr” value in data set [1] is “+ (+ >30% at 10 ug/ml)”.
For the molecule `Cc1ccc(-n2nc(C(C)(C)C)cc2NC(=O)Nc2ccc(OCc3ccnc(NC(=O)CO)c3)c3ccccc23)cc1` [Example 7, N-(4-((4-(3-(3-tert-Butyl-1-p-tolyl-1H-pyrazol-5-yl)ureido)naphthalen-1-yloxy)methyl)pyridin-2-yl)-2-hydroxyacetamide], the values for the half-inhibitory concentration (IC50) in data set [5], in data set [2] and in data set [4] (setting [7]) were less than 10 nM, less than 500 nM and less than 10 nM, respectively. For the same molecule, the concentration for a half-maximal effect (EC50) in data set [3] (setting [6]) was less than 10 nM. For the same molecule, the “MTT 4 hr” value in data set [1] is “− (− <30%)”. Besides, the “MTT 24 hr” value in data set [1] is recorded as “+ (+ >30% at 10 ug/ml)”.
`CNC(C)(C)C(=O)Nc1cc(COc2ccc(NC(=O)Nc3cc(C(C)(C)C)nn3-c3ccc(C)cc3)c3ccccc23)ccn1` [Example 8, N-(4-((4-(3-(3-tert-Butyl-1-p-tolyl-1H-pyrazol-5-yl)ureido)naphthalen-1-yloxy)methyl)pyridin-2-yl)-2-methyl-2-(methylamino)propanamide]: the values for the IC50 in data set [5], in data set [2] and in data set [4] (setting [7]) were less than 500 nM, less than 5000 nM and less than 10 nM, respectively. In addition, in data set [3] (setting [6]), the EC50 was less than 10 nM. The “MTT 4 hr” value in data set [1] is “− (− <30%)”. Besides, in data set [1], the “MTT 24 hr” value is “+ (+ >30% at 10 ug/ml)”.
As to `CN[C@@H](C)C(=O)Nc1cc(COc2ccc(NC(=O)Nc3cc(C(C)(C)C)nn3-c3ccc(C)cc3)c3ccccc23)ccn1` [Example 9, (S)-N-(4-((4-(3-(3-tert-Butyl-1-p-tolyl-1H-pyrazol-5-yl)ureido)naphthalen-1-yloxy)methyl)pyridin-2-yl)-2-(methylamino)propanamide], the IC50 in data set [5] was less than 10 nM; in data set [2], less than 500 nM; in data set [4] (setting [7]), less than 10 nM. Besides, in data set [3] (setting [6]), the half-maximal effective concentration (EC50) is less than 10 nM. In addition, the “MTT 4 hr” value in data set [1] is reported as “− (− <30%)”. The “MTT 24 hr” value in data set [1] was “+ (+ >30% at 10 ug/ml)”.
On to `Cc1ccc(-n2nc(C(C)(C)C)cc2NC(=O)Nc2ccc(OCc3ccnc(NC(=O)[C@H]4COCCN4)c3)c3ccccc23)cc1` [Example 10, (R)-N-(4-((4-(3-(3-tert-Butyl-1-p-tolyl-1H-pyrazol-5-yl)ureido)naphthalen-1-yloxy)methyl)pyridin-2-yl)morpholine-3-carboxamide], for which the half-inhibitory concentration (IC50) in data set [5] is less than 500 nM; in data set [2] it was less than 5000 nM; in data set [4] (setting [7]) it was less than 10 nM. Besides, the EC50 in data set [3] (setting [6]) was less than 10 nM. For the same molecule, the “MTT 4 hr” value in data set [1] was “− (− <30%)”. Also, the “MTT 24 hr” value in data set [1] is on record as “− (− <30%)”.
As to `Cc1ccc(-n2nc(C(C)(C)C)cc2NC(=O)Nc2ccc(OCc3ccnc(NC(=O)[C@@H]4COCCN4)c3)c3ccccc23)cc1` [Example 11, (S)-N-(4-((4-(3-(3-tert-Butyl-1-p-tolyl-1H-pyrazol-5-yl)ureido)naphthalen-1-yloxy)methyl)pyridin-2-yl)morpholine-3-carboxamide], the IC50 was less than 10 nM in data set [5], less than 5000 nM in data set [2] and less than 10 nM in data set [4] (setting [7]). In addition, in data set [3] (setting [6]), the EC50 is less than 10 nM. The “MTT 4 hr” value in data set [1] is reported as “− (− <30%)”. For the same molecule, the “MTT 24 hr” value in data set [1] is listed as “− (− <30%)”.
For the molecule `COCCNC(=O)CNC(=O)Nc1cc(COc2ccc(NC(=O)Nc3cc(C(C)(C)C)nn3-c3ccc(C)cc3)c3ccccc23)ccn1` [Example 15, 2-(3-(4-((4-(3-(3-tert-Butyl-1-p-tolyl-1H-pyrazol-5-yl)ureido)naphthalen-1-yloxy)methyl)pyridin-2-yl)ureido)-N-(2-methoxyethyl)acetamide], the concentration for half-maximal inhibition (IC50) in data set [2] is less than 500 nM. For the same molecule, the concentration giving a half-maximal response (EC50) in data set [3] (setting [6]) was less than 500 nM. For the same molecule, in data set [4] (setting [7]), the IC50 is less than 10 nM. In addition, in data set [1], the “MTT 4 hr” value is “− (− <30%)” and the “MTT 24 hr” value is reported as “− (− <30%)”.
Turning to `COCCNCC(=O)Nc1cc(COc2ccc(NC(=O)Nc3cc(C(C)(C)C)nn3-c3ccc(C)cc3)c3ccccc23)ccn1` [Example 25, N-(4-((4-(3-(3-tert-Butyl-1-p-tolyl-1H-pyrazol-5-yl)ureido)naphthalen-1-yloxy)methyl)pyridin-2-yl)-2-(2-methoxyethylamino)acetamide], the IC50 in data set [2] is less than 500 nM; in data set [4] (setting [7]), less than 10 nM. In addition, the concentration giving a half-maximal response (EC50) in data set [3] (setting [6]) is less than 10 nM. The “MTT 4 hr” value in data set [1] is “− (− <30%)”. Besides, the “MTT 24 hr” value in data set [1] is “− (− <30%)”.
In the case of `CNC(=O)Nc1cnccc1COc1ccc(NC(=O)Nc2cc(C(C)(C)C)nn2-c2ccc(C)cc2)c2ccccc12` [Example 34, 1-(4-((3-Methylureidopyridin-4-yl)methoxy)naphthalen-1-yl)-3-(3-tert-butyl-1-p-tolyl-1H-pyrazol-5-yl)urea], the half-inhibitory concentration (IC50) in data set [2] was less than 5000 nM; in data set [4] (setting [7]), less than 500 nM. For the same molecule, in data set [3] (setting [6]), the half-maximal effective concentration (EC50) was less than 500 nM. Moreover, in data set [1], the “MTT 4 hr” value is “+ (+ >30% at 10 ug/ml)”. In addition, in data set [1], the “MTT 24 hr” value is given as “− (− <30%)”.
For the molecule `COCC(=O)Nc1cnccc1COc1ccc(NC(=O)Nc2cc(C(C)(C)C)nn2-c2ccc(C)cc2)c2ccccc12` [Example 35, N-(4-((4-(3-(3-tert-Butyl-1-p-tolyl-1H-pyrazol-5-yl)ureido)naphthalen-1-yloxy)methyl)pyridin-3-yl)-2-methoxyacetamide], the 50% inhibitory concentration (IC50) in data set [2] is more than 5000 nM. Moreover, in data set [1], the “MTT 4 hr” value is “− (− <30%)” and the “MTT 24 hr” value was “− (− <30%)”.
For `COCCOCC(=O)Nc1cnccc1COc1ccc(NC(=O)Nc2cc(C(C)(C)C)nn2-c2ccc(C)cc2)c2ccccc12` [Example 36, N-(4-((4-(3-(3-tert-Butyl-1-p-tolyl-1H-pyrazol-5-yl)ureido)naphthalen-1-yloxy)methyl)pyridin-3-yl)-2-(2-methoxyethoxy)acetamide], the half-inhibitory concentration (IC50) in data set [2] is more than 5000 nM; in data set [4] (setting [9]), less than 500 nM. Besides, the EC50 in data set [3] (setting [8]) was less than 10 nM. Also, the “MTT 4 hr” value in data set [1] is recorded as “− (− <30%)”. For the same molecule, the “MTT 24 hr” value in data set [1] is given as “− (− <30%)”.
Take `Cc1ccc(-n2nc(C(C)(C)C)cc2NC(=O)Nc2ccc(Oc3ccnc(NC(=O)CS(C)(=O)=O)c3)c3ccccc23)cc1` [Example 51, N-(4-(4-(3-(3-tert-Butyl-1-p-tolyl-1H-pyrazol-5-yl)ureido)naphthalen-1-yloxy)pyridin-2-yl)-2-(methylsulfonyl)acetamide]: the half-maximal effective concentration (EC50) in data set [3] (setting [8]) is less than 10 nM. In addition, in data set [4] (setting [9]), the 50% inhibitory concentration (IC50) is less than 10 nM. In data set [1], the “MTT 4 hr” value is “− (− <30%)” and the “MTT 24 hr” value was “+ (+ >30% at 10 ug/ml)”.
